# Counter-ions that a name gives are not always drawn.
# Tests used:
# [1] = Determination of the solubility (suspension shaken 24 h at room temperature, HPLC); format: physicochemical; details: thermodynamic from solid
# Experimental: […] This suspension is shaken at room temperature for 24 h. After ultracentrifugation at 224 000 g for 30 min, the supernatant is diluted with DMSO and analysed by HPLC. A two-point calibration plot of the test compound in DMSO is used for quantification.
# Agilent 1100 with DAD (G1315A), quat. pump (G1311A), autosampler CTC HTS PAL, degasser (G1322A) and column thermostat (G1316A); column: Zorbax Extend-C18 3.5μ; temperature: 40° C.; eluent A: water+5 ml of perchloric acid/liter, eluent B: acetonitrile; flow rate: 0.7 ml/min; gradient: 0-0.5 min 98% A, 2% B; ramp 0.5-4.5 min 10% A, 90% B; 4.5-6 min 10% A, 90% B; ramp 6.5-6.7 min 98% A, 2% B; 6.7-7.5 min 98% A, 2% B.
# [2] = Stability in buffer at various pH values (HPLC, 37° C., 24 h); format: physicochemical
# Experimental: 0.3 mg of the test substance is weighed into a 2 ml HPLC vial and 0.5 ml of acetonitrile is added. The substance is dissolved by putting the sample vessel in an ultrasonic bath for about 10 seconds. Then 0.5 ml of the respective buffer solution is added, and the sample is again treated in the ultrasonic bath.
# • pH 4.0:1 liter of Millipore water is adjusted to pH 4.0 with 1 N hydrochloric acid; • pH 7.4: 90 g of sodium chloride, 13.61 g of potassium dihydrogen phosphate and 83.35 g of 1 M sodium hydroxide solution are made up to 1 liter with Millipore water and then diluted 1:10.
# 5 μl portions of the test solution are analysed by HPLC for their content of unchanged test substance every hour over a period of 24 hours at 37° C. The percentage areas of the appropriate peaks are used for quantification.
# Agilent 1100 with DAD (G1314A), binary pump (G1312A), autosampler (G1329A), column oven (G1316A), thermostat (G1330A); column: Kromasil 100 C18, 125 mm×4.6 mm, 5 μm; column temperature: 30° C.; eluent A: water+5 ml of perchloric acid/liter, eluent B: acetonitrile.
# The ratios of the peak areas (F) at the respective time points in relation to the peak areas at the starting time are shown in Table 2 for representative exemplary embodiments: […]
# [3] = In vitro stability in rat plasma (LC/MS-MS detection); format: in vitro ADME, Wistar rats; details: Wistar rat plasma, 37° C.
# Experimental: A defined plasma volume (e.g. 2.0 ml) is warmed to 37° C. in a closed test tube in a waterbath. After the intended temperature is reached, a defined amount of the test substance is added as solution (volume of the solvent not more than 2% of the plasma volume). The plasma is shaken and a first sample (50-100 μl) is immediately taken. Then 4-6 further aliquots are taken in the period up for 2 h after the start of incubation.
# Acetonitrile is added to the plasma samples to precipitate proteins. After centrifugation, the test substance and, where appropriate, known cleavage products of the test substance in the supernatant are determined quantitatively with a suitable LC/MS-MS method.
# The concentrations c of the compound of Example 6 and of the active ingredient compound (A) liberated therefrom determined at various times in the plasma of Wistar rats are shown in Table 3:
# The concentrations c of the compound of Example 13 and of the active ingredient compound (A) liberated therefrom determined at various times in the plasma of Wistar rats are shown in Table 4: […]
# [4] = In vitro stability in rat plasma (HPLC detection); format: in vitro ADME; details: 37° C., read-out: half-life of degradation to liberate compound (A)
# Experimental: 1 mg of substance is dissolved in 1.25 ml of dimethyl sulphoxide. Then 1.25 ml of water are added. 500 μl of this sample solution are mixed with 500 μl of rat plasma at 37° C. and shaken. A first sample (10 μl) is immediately taken for HPLC analysis. In the period up to 2 h after the start of incubation, further aliquots are taken after 2, 5, 10, 30, 60 and 90 min, and the content of the respective test substance and of the active ingredient compound (A) liberated therefrom is determined.
# Agilent 1100 with DAD (G1314A), binary pump (G1312A), autosampler (G1329A), column oven (G1316A), thermostat (G1330A); column: Kromasil 100 C18, 250 mm×4.6 mm, 5 μm; column temperature: 30° C.; eluent A: water+5 ml of perchloric acid/liter, eluent B: acetonitrile.
# [5] = 5% dextrose adjusted to pH 4 with hydrochloric acid, pH 4, saline or isotonic
# [6] = buffer pH 4, 37° C., hydrochloride
"solubility at 24 h ([1]; dilute hydrochloric acid (pH 4), pH 4, aqueous buffer, room temperature, 24 h) [µg/mL]","% test substance after 4 h [F(t = 4 h) × 100/F(t = 0 h)] ([2]; buffer pH 4, 37° C.) [%]","% Test substance after 24 h [F(t = 24 h) × 100/F(t = 0 h)] ([2]; buffer pH 4, 37° C.) [%]","% test substance after 4 h [F(t = 4 h) × 100/F(t = 0 h)] ([2]; buffer pH 7.4, 37° C.) [%]","% Test substance after 24 h [F(t = 24 h) × 100/F(t = 0 h)] ([2]; buffer pH 7.4, 37° C.) [%]",c of test substance ([3]; incubation time 0 h) [mg/L],c of test substance ([3]; incubation time 0.08 h) [mg/L],c of test substance ([3]; incubation time 0.17 h) [mg/L],"solubility at 24 h [1, 5] [µg/mL]","% test substance after 4 h [F(t = 4 h) × 100/F(t = 0 h)] [2, 6] [%]","% Test substance after 24 h [F(t = 24 h) × 100/F(t = 0 h)] [2, 6] [%]",half-life at 0.2 mg/ml [4] [min],SMILES
860,100,98,90,59,0.403,0.0756,0.0079,–,–,–,–,"CC(C)[C@@H](N)C(=O)OCC(=O)N(C[C@H]1CN(c2ccc(N3CCOCC3=O)cc2)C(=O)O1)C(=O)c1ccc(Cl)s1 [Example 6, 2-[[(5-Chloro-2-thienyl)carbonyl]({(5S)-2-oxo-3-[4-(3-oxomorpholin-4-yl)phenyl]-1,3-oxazolidin-5-yl}methyl)amino]-2-oxoethyl D-valinate hydrochloride]"
–,–,–,–,–,0.5,–,–,2700,99,91,< 2,"CNCCCC(=O)N(C[C@H]1CN(c2ccc(N3CCOCC3=O)cc2)C(=O)O1)C(=O)c1ccc(Cl)s1 [Example 13, 5-Chloro-N-[4-(methylamino)butanoyl]-N-({(5S)-2-oxo-3-[4-(3-oxomorpholin-4-yl)phenyl]-1,3-oxazolidin-5-yl}methyl)thiophene-2-carboxamide hydrochloride]"
–,–,–,–,–,–,–,–,–,83,55,< 2,"CNCCCCC(=O)N(C[C@H]1CN(c2ccc(N3CCOCC3=O)cc2)C(=O)O1)C(=O)c1ccc(Cl)s1 [Example 17, 5-Chloro-N-[5-(methylamino)pentanoyl]-N-({(5S)-2-oxo-3-[4-(3-oxomorpholin-4-yl)phenyl]-1,3-oxazolidin-5-yl}methyl)thiophene-2-carboxamide hydrochloride]"
–,98,90,0,0,–,–,–,> 3000,–,–,< 2,"NCCCCC(=O)N(C[C@H]1CN(c2ccc(N3CCOCC3=O)cc2)C(=O)O1)C(=O)c1ccc(Cl)s1 [Example 20, N-(5-Aminopentanoyl)-5-chloro-N-({(5S)-2-oxo-3-[4-(3-oxomorpholin-4-yl)phenyl]-1,3-oxazolidin-5-yl}methyl)thiophene-2-carboxamide hydrochloride]"
–,100,98,–,–,–,–,–,> 3000,–,–,< 2,"CCCCNCCCC(=O)N(C[C@H]1CN(c2ccc(N3CCOCC3=O)cc2)C(=O)O1)C(=O)c1ccc(Cl)s1 [Example 22, N-[4-(Butylamino)butanoyl]-5-chloro-N-({(5S)-2-oxo-3-[4-(3-oxomorpholin-4-yl)phenyl]-1,3-oxazolidin-5-yl}methyl)thiophene-2-carboxamide hydrochloride]"
–,–,–,–,–,–,–,–,–,–,–,< 2,"NCCOCC(=O)N(C[C@H]1CN(c2ccc(N3CCOCC3=O)cc2)C(=O)O1)C(=O)c1ccc(Cl)s1 [Example 23, N-[(2-Aminoethoxy)acetyl]-5-chloro-N-({(5S)-2-oxo-3-[4-(3-oxomorpholin-4-yl)phenyl]-1,3-oxazolidin-5-yl}methyl)thiophene-2-carboxamide hydrochloride]"
